The nature of series [1]: Test for proteolytic degradation of the peptide compounds in ovine serum. The format is in vitro ADME, ewes of the Ile de France breed. To be noted: female, Ile de France, sheep. How it is done:
In order to carry out this test, blood was collected from the jugular vein of ewes of the Ile de France breed, and centrifuged. The supernatant (serum) was stored at −20° C. until use.
The degradation in this serum of the various peptide compounds in accordance with the invention and of the comparative peptide compounds is monitored over time. To this effect, each peptide compound to be analyzed and the internal calibrant (L-phenylalaninol) are dissolved in milliQ water (0.5 mM and 6.6 mM, respectively). The commercial protease inhibitor cocktail (Sigma, ref. P8340) is supplied in solution in DMSO.
The serum and the stock solutions of peptide compounds are preheated at 39° C. for 30 minutes. Each solution of peptide compound (50 μl, i.e. a final concentration in the serum of 50 μM) and the solution of internal calibrant (25 μl) are mixed with 425 μl of serum and incubated at 39° C. The proteolytic degradation kinetics of the compounds are monitored by taking a sample, at various given times, of 75 μl of the solution, which are diluted with 150 μL of acetonitrile in order to precipitate the serum proteins. The suspension obtained is centrifuged at 14 000 revolutions/min for 10 min at 4° C.
The amount of peptide compound intact after incubation is determined by integration of the area of the peak, using L-phenylalaninol as internal calibrant. It is expressed as % of the area of the peak at time t=0.
The value corresponding to 100% of intact peptide compound is obtained by mixing 420 μl of serum, 5 μl of the inhibitor cocktail and 25 μl of the phenylalaninol solution, followed by 50 μl of peptide compound, and then by immediately treating the resulting solution according to the protocol described above.

The next series concerns the target T1, human KISS1R receptor (Homo sapiens, UniProt Q969F8).
T1 construct: expressed in transfected cells
The experiment in a line: Intracellular calcium mobilization test in HEK293A cells expressing human KISS1R. As to conditions: for EC50: HEK293A cells expressing human KISS1R, Fluo-4NW; for human KISS1R-stimulating power (in words): calcium mobilization, compared with Comp.1. The format is cell-based.

[2] abbreviates: ovine serum, 39° C., 50 μM, 3 h, % of the area of the HPLC peak at time t = 0, read-out: % of peptide intact after 3 h of incubation in the serum.
Setting [3] is: read-out: EC50, intracellular calcium mobilization of cells expressing human KISS1R (Table 2).
Where [4] appears, read: compounds with serum albumin binding unit or PEG, read-out: EC50, intracellular calcium mobilization of cells expressing human KISS1R (Table 3).

Read-outs that look alike come from different tables or passages of the source. *1 amine or outer side, *2 acyl side, *3 side chain or, on linkers, in order; H or OH if unused. Where a SMILES comes first, the peptide text is derived from it. [ ]: non-standard residue; d: D form. The star is where a group is joined. PEG 5000 = polyethylene glycol (5000) attached to the Lys side chain; Glyψ(1,4-Tz)Leu = CC(C)C[C@@H](C(=O)[*:2])n1cc(CN[*:1])nn1; γGlu = O=C(O)[C@H](CCC(=O)[*:2])N[*:1]; Arg(Me) = CNC(=N)NCCC[C@H](N)C(=O)O; Palmitoyl = CCCCCCCCCCCCCCCC(=O)*

Usually EC50 stands for the concentration at which the effect is half-maximal.

T1 sequence (Q969F8 whole entry): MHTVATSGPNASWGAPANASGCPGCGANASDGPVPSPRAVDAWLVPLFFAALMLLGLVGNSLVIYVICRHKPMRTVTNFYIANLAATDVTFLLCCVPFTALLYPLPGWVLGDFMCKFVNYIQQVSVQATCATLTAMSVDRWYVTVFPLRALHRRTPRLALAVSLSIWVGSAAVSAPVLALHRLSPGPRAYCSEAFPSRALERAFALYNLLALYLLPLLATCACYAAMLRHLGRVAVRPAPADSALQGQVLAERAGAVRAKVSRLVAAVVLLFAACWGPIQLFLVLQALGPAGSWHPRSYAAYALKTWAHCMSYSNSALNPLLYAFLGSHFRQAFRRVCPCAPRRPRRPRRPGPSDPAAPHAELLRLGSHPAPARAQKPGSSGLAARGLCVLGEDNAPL
Source text for human KISS1R receptor: In order to carry out the in vitro tests for the activity of the peptide compounds in accordance with the invention and the comparative compounds, the HEK293A cell line (ATCC, American Type Culture Collection, Manassas, Va., USA) was stably transfected with the human KISS1R receptor (Genbank accession number: NM_032551). The pcDNA3.1 vector (Invitrogen, Cergy Pontoise, France), into which the sequence of human KISS1R has been inserted with a 5′ HA tag at position 957-2150 bp, was used for the transfection. The transfection and the selection of the clones were carried out as described in the literature (Mancini et al. 2009, and Invitrogen website).
In order to verify the agonist activity and to measure the EC50 of the peptide compounds according to the invention, the following protocol was carried out.
HEK293A cells expressing the human KISS1R receptor were seeded into a 96-well plate (μClear® black plate) at the concentration of 40 000 cells/well, and placed in an incubator at 37° C. After 48 hours, the medium was changed and the cells were incubated with the fluorescent dye Fluo-4NW, according to the instructions of the manufacturer (Molecular Probe).
After having measured the basal fluorescence, 5 μl of the 20× solution containing the test compound were added to each well (containing 95 μl) so as to obtain the desired concentration. The variations in fluorescence were recorded every 7 seconds for 5-7 minutes with a plate reader (PolarStar Optima, BMG Labtech). Activity-concentration curves were generated using the GraphPad Prism 5 software, and the EC50 of each compound was calculated by adjusting the curve to a sigmoid.

As to `CC(C)C[C@H](NC(=O)CNC(=O)[C@H](Cc1ccccc1)NC(=O)[C@H](CO)NC(=O)[C@H](CC(N)=O)NC(=O)[C@H](Cc1c[nH]c2ccccc12)NC(=O)[C@H](CC(N)=O)NC(=O)[C@@H](N)Cc1ccc(O)cc1)C(=O)N[C@@H](CCCNC(=N)N)C(=O)N[C@@H](Cc1ccccc1)C(N)=O` [Comp. 2, reference compound], the remaining at 3 h, 50 μM in series [1] (setting [2]) is below 0.1%.
`CNC(=N)NCCC[C@H](NC(=O)[C@H](CC(C)C)n1cc(CNC(=O)[C@H](Cc2ccccc2)NC(=O)[C@H](CO)NC(=O)[C@H](CC(N)=O)NC(=O)[C@H](Cc2c[nH]c3ccccc23)NC(=O)[C@H](CC(N)=O)NC(=O)[C@H](Cc2ccc(O)cc2)NC(C)=O)nn1)C(=O)N[C@@H](Cc1ccc(O)cc1)C(N)=O` [Compound C3, Ac-Tyr-Asn-Trp-Asn-Ser-Phe-GlyΨ[Tz]Leu-Arg(Me)-Tyr-NH2] (HELM PEPTIDE1{[ac].Y.N.W.N.S.F.[CC(C)C[C@@H](C(=O)[*:2])n1cc(CN[*:1])nn1].[CNC(=N)NCCC[C@H](N[*:1])C(=O)[*:2]].Y.[am]}$$$$V2.0) returned a remaining at 3 h, 50 μM in series [1] (serum) of 55%. Further, at human KISS1R receptor (setting [3]), the EC50 was 0.014 nM.
Take `CC(=O)N[C@@H](Cc1ccc(O)cc1)C(=O)N[C@@H](CC(N)=O)C(=O)N[C@@H](Cc1c[nH]c2ccccc12)C(=O)N[C@@H](CC(N)=O)C(=O)N[C@@H](CO)C(=O)N[C@@H](Cc1ccccc1)c1cn(Cc2cn([C@@H](CC(C)C)C(=O)N[C@@H](CCCNC(=N)N)C(=O)N[C@@H](Cc3ccc(O)cc3)C(N)=O)nn2)nn1` [Compound C5, Ac-Tyr-Asn-Trp-Asn-Ser-PheΨ[Tz]GlyΨ[Tz]Leu-Arg-Tyr-NH2]: in series [1] (serum), the remaining at 3 h, 50 μM stood at 51%. Besides, the “human KISS1R-stimulating power (in words)” value on human KISS1R receptor was “remains, however, active, although to a lesser degree”.
As to `CNC(=N)NCCC[C@H](NC(=O)[C@H](CC(C)C)n1cc(CNC(=O)[C@H](Cc2ccccc2)NC(=O)[C@@H](NC(=O)[C@H](CC(N)=O)NC(=O)[C@@H]2C[C@@H](O)CN2C(=O)[C@@H](Cc2ccc(O)cc2)NC(C)=O)[C@@H](C)O)nn1)C(=O)N[C@@H](Cc1c[nH]c2ccccc12)C(N)=O` [Compound C7, Ac-DTyr-Hyp-Asn-Thr-Phe-GlyΨ[Tz]Leu-Arg(Me)-Trp-NH2] (HELM PEPTIDE1{[ac].[dY].[Hyp].N.T.F.[CC(C)C[C@@H](C(=O)[*:2])n1cc(CN[*:1])nn1].[CNC(=N)NCCC[C@H](N[*:1])C(=O)[*:2]].W.[am]}$$$$V2.0), in series [1] (serum), the remaining at 3 h, 50 μM was determined as 17%. In addition, at human KISS1R receptor (setting [3]), the EC50 stood at 0.014 nM.
Take `CCCCCCCCCCCCCCCC(=O)N[C@@H](CCC(=O)N[C@@H](Cc1ccc(O)cc1)C(=O)N[C@@H](CC(N)=O)C(=O)N[C@@H](Cc1c[nH]c2ccccc12)C(=O)N[C@@H](CC(N)=O)C(=O)N[C@@H](CO)C(=O)N[C@@H](Cc1ccccc1)C(=O)NCc1cn([C@@H](CC(C)C)C(=O)N[C@@H](CCCNC(=N)N)C(=O)N[C@@H](Cc2ccc(O)cc2)C(N)=O)nn1)C(=O)O` [Compound C9, γ-(N-hexadecanoyl-Glu-OH)-Tyr-Asn-Trp-Asn-Ser-Phe-GlyΨ[Tz]Leu-Arg-Tyr-NH2] (HELM PEPTIDE1{[CCCCCCCCCCCCCCCC(=O)[*:2]].[gGlu].Y.N.W.N.S.F.[CC(C)C[C@@H](C(=O)[*:2])n1cc(CN[*:1])nn1].R.Y.[am]}$$$$V2.0): the EC50 at human KISS1R receptor (setting [4]) is below 0.001 nM.
Regarding `CCCCCCCCCCCCCCCC(=O)N[C@@H](CCC(=O)N[C@@H](Cc1ccc(O)cc1)C(=O)N[C@@H](CC(N)=O)C(=O)N[C@@H](Cc1c[nH]c2ccccc12)C(=O)N[C@@H](CC(N)=O)C(=O)N[C@@H](CO)C(=O)N[C@@H](Cc1ccccc1)C(=O)NCc1cn([C@@H](CC(C)C)C(=O)N[C@@H](CCCNC(=N)N)C(=O)N[C@@H](Cc2c[nH]c3ccccc23)C(N)=O)nn1)C(=O)O` [Compound C10, γ-(N-hexadecanoyl-Glu-OH)Tyr-Asn-Trp-Asn-Ser-Phe-GlyΨ[Tz]Leu-Arg-Trp-NH2] (HELM PEPTIDE1{[CCCCCCCCCCCCCCCC(=O)[*:2]].[gGlu].Y.N.W.N.S.F.[CC(C)C[C@@H](C(=O)[*:2])n1cc(CN[*:1])nn1].R.W.[am]}$$$$V2.0), at human KISS1R receptor (setting [4]), the EC50 is below 0.001 nM.
Turning to `CCCCCCCCCCCCCCCC(=O)N[C@@H](CCC(=O)NCCCC[C@H](NC(=O)[C@H](CC(N)=O)NC(=O)[C@H](Cc1ccc(O)cc1)NC(C)=O)C(=O)N[C@@H](CC(N)=O)C(=O)N[C@@H](CO)C(=O)N[C@@H](Cc1ccccc1)C(=O)NCc1cn([C@@H](CC(C)C)C(=O)N[C@@H](CCCNC(=N)N)C(=O)N[C@@H](Cc2ccc(O)cc2)C(N)=O)nn1)C(=O)O` [Compound C11, Ac-Tyr-Asn-Lys(γ-(N-hexadecanoyl-Glu-OH))-Asn-Ser-Phe-GlyΨ[Tz]Leu-Arg-Tyr-NH2] (HELM PEPTIDE1{[ac].Y.N.K.N.S.F.[CC(C)C[C@@H](C(=O)[*:2])n1cc(CN[*:1])nn1].R.Y.[am]}|PEPTIDE2{[CCCCCCCCCCCCCCCC(=O)[*:2]].[gGlu]}$PEPTIDE1,PEPTIDE2,4:R3-2:R2$$$V2.0), the “human KISS1R-stimulating power (in words)” value on human KISS1R receptor is on record as “remains, however, active, although to a lesser degree”.
`CCCCCCCCCCCCCCCC(=O)N[C@@H](CCC(=O)N[C@@H](Cc1ccc(O)cc1)C(=O)N[C@@H](CC(N)=O)C(=O)N[C@@H](Cc1c[nH]c2ccccc12)C(=O)N[C@@H](CC(N)=O)C(=O)N[C@@H](CO)C(=O)N[C@@H](Cc1ccccc1)C(=O)NCc1cn([C@@H](CC(C)C)C(=O)N[C@@H](CCCNC(=N)NC)C(=O)N[C@@H](Cc2ccc(O)cc2)C(N)=O)nn1)C(=O)O` [Compound C12, γ-(N-hexadecanoyl-Glu-OH)Tyr-Asn-Trp-Asn-Ser-Phe-GlyΨ[Tz]Leu-Arg(Me)-Tyr-NH2] ({Palmitoyl-γGlu}-YNWNSF[Glyψ(1,4-Tz)Leu][Arg(Me)]Y-NH2): the EC50 at human KISS1R receptor (setting [4]) was below 0.001 nM.
Same read-out and setting: for `CCCCCCCCCCCCCCCC(=O)N[C@@H](CCC(=O)N[C@@H](Cc1ccc(O)cc1)C(=O)N[C@@H](CC(N)=O)C(=O)N[C@@H](Cc1c[nH]c2ccccc12)C(=O)N[C@@H](CC(N)=O)C(=O)N[C@@H](CO)C(=O)N[C@@H](Cc1ccccc1)C(=O)NCc1cn([C@@H](CC(C)C)C(=O)N[C@@H](CCCNC(=N)N)C(=O)N[C@@H](Cc2ccccc2)C(N)=O)nn1)C(=O)O` [Compound C13, γ-(N-hexadecanoyl-Glu-OH)Tyr-Asn-Trp-Asn-Ser-Phe-GlyΨ[Tz]Leu-Arg-Phe-NH2] (HELM PEPTIDE1{[CCCCCCCCCCCCCCCC(=O)[*:2]].[gGlu].Y.N.W.N.S.F.[CC(C)C[C@@H](C(=O)[*:2])n1cc(CN[*:1])nn1].R.F.[am]}$$$$V2.0) the value was 0.01 nM.
For “Ac-Tyr-Lys(PEG5000)-Trp-Asn-Ser-Phe-GlyΨ[Tz]Leu-Arg-Tyr-NH2 (Ac-YK(PEG 5000)WNSFGLRY-NH2; also: Gly7-Leu8 peptide bond replaced by 1,4-disubstituted 1,2,3-triazole) [Compound C16, PEG5000 = COCH2CH2NH(CH2CH2O)nMe, average molecular weight approximately 5000 g/mol]”, the “human KISS1R-stimulating power (in words)” value with human KISS1R receptor is “shows a power similar to the comparative compound Comp.1”.
Take “H-YNWNSFGLRY-NH2 [Comp. 1, reference compound]”: the remaining at 3 h, 50 μM in series [1] (setting [2]) is below 0.1%.

The record behind these values is patent US9884891B2, “KISS1R receptor agonist compounds and use thereof for inducing ovulation in mammals” (INSTITUT NATIONAL DE LA RECHERCHE AGRONOMIQUE, priority 2013, dated 2018).
